{"source": "ChEMBL document CHEMBL4665792", "about": "(J Med Chem, 2020)", "key": {"[1]": {"test_system": "HT-29", "assay": "Antiproliferative activity against human HT-29 cells assessed as reduction in cell viability incubated for 24 hrs by MTT assay", "assay_type": "functional, cell-based", "details": "HT-29, 24 h"}, "[2]": {"test_system": "HCT-116", "assay": "Antiproliferative activity against human HCT-116 cells assessed as reduction in cell viability incubated for 24 hrs by MTT assay", "assay_type": "functional, cell-based", "details": "HCT-116, 24 h"}, "[3]": {"test_system": "HepG2", "assay": "Antiproliferative activity against human HepG2 cells assessed as reduction in cell viability incubated for 24 hrs by MTT assay", "assay_type": "functional, cell-based", "details": "HepG2, 24 h"}, "[4]": {"test_system": "MCF7", "assay": "Antiproliferative activity against human MCF7 cells assessed as reduction in cell viability incubated for 24 hrs by MTT assay", "assay_type": "functional, cell-based", "details": "MCF7, 24 h"}, "[5]": {"test_system": "L02", "assay": "Cytotoxicity against human L02 cells assessed as cell viability incubated for 24 hrs by MTT assay", "assay_type": "cell-based", "details": "L02, 24 h"}, "[6]": {"test_system": "HK-2", "assay": "Cytotoxicity against human HK2 cells assessed as cell viability incubated for 24 hrs by MTT assay", "assay_type": "cell-based", "details": "HK-2, 24 h"}, "[7]": {"organism": "Homo sapiens", "assay": "Inhibition of TrxR (unknown origin) at 5 uM in presence of NADPH by Ellman's method"}, "[8]": {"assay": "Inhibition of TrxR (unknown origin) in presence of NADPH by Ellman's method", "set-up": "species or system Homo sapiens"}, "[9]": {"assay": "Inhibition of Escherichia coli Trx incubated for 1.5 hrs in presence of DTT and insulin"}, "[10]": {"assay": "Inhibition of TrxR in human HT-29 cells incubated for 30 mins in presence of insulin, NADPH and Trx by DTNB reagent based assay", "assay_type": "cell-based"}, "[11]": {"assay": "Inhibition of TrxR in human HT-29 cells incubated for 60 mins in presence of insulin, NADPH and Trx by DTNB reagent based assay", "assay_type": "cell-based"}, "[12]": {"assay": "Inhibition of TrxR in human HT-29 cells incubated for 90 mins in presence of insulin, NADPH and Trx by DTNB reagent based assay", "assay_type": "cell-based"}, "[13]": {"assay": "Covalent inhibition of TrxR (unknown origin) assessed as covalent bond formation incubated up to 30 mins in presence of NADPH by Ellman's method", "set-up": "species or system Homo sapiens"}, "[14]": {"test_system": "HT-29", "assay": "Down regulation of Trx expression in human HT29 cells at 0.25 to 1 uM incubated for 24 hrs by Western blot analysis", "assay_type": "functional, cell-based"}, "[15]": {"test_system": "HT-29", "assay": "Down regulation of TrxR expression in human HT29 cells at 0.25 to 1 uM incubated for 24 hrs by Western blot analysis", "assay_type": "functional, cell-based"}, "[16]": {"test_system": "HT-29", "assay": "Inhibition of TrxR in human HT29 cells assessed as decrease in ASK1 to phosphorylated ASK1 expression ratio at 0.25 to 1 uM incubated for 24 hrs by Western blot analysis", "assay_type": "cell-based"}, "[17]": {"test_system": "HT-29", "assay": "Inhibition of TrxR in human HT29 cells assessed as increase in p53 to GAPDH expression ratio at 0.25 to 1 uM incubated for 24 hrs by Western blot analysis", "assay_type": "cell-based"}, "[18]": {"test_system": "HT-29", "assay": "Inhibition of TrxR in human HT-29 cells assessed as increase in production of intracellular ROS incubated for 24 hrs by DCFH-DA staining-based flow cytometric analysis", "assay_type": "cell-based"}, "[19]": {"test_system": "HCT-116", "assay": "Inhibition of TrxR in human HCT-116 cells assessed as increase in production of intracellular ROS incubated for 24 hrs by DCFH-DA staining-based flow cytometric analysis", "assay_type": "cell-based"}, "[20]": {"test_system": "HT-29", "assay": "Antiproliferation activity against human HT-29 cells assessed as reduction in monoclonal ability incubated for 24 hrs followed by fresh medium supplementation every 2 to 3 days for 14 days by crystal violet staining based analysis", "assay_type": "functional, cell-based", "details": "dose microM 0.015-0.06, time 24.0 hrs"}, "[21]": {"test_system": "HT-29", "assay": "Antiproliferation activity against human HT-29 cells assessed as decrease in number of EdU-positive cells at 0.125 to 0.5 uM incubated for 20 hrs followed by addition of EdU-labelling agent measured after 8 hrs by Hoechst-33258 staining based analysis", "assay_type": "functional, cell-based", "details": "dose microM 0.125-0.500, time 28.0 hrs"}, "[22]": {"test_system": "HT-29", "assay": "Cell cycle arrest in human HT-29 cells assessed as accumulation at G2/M phase incubated for 24 hrs by propidium iodide staining based flow cytometry", "assay_type": "functional", "details": "dose microM 0.125-0.5, time 24.0 hrs"}, "[23]": {"test_system": "HT-29", "assay": "Induction of apoptosis in human HT-29 cells assessed as cell death at 0.25 to 1 uM incubated for 24 hrs by Annexin V-FITC/propidium iodide staining based flow cytometry", "assay_type": "functional"}, "[24]": {"test_system": "HT-29", "assay": "Induction of mitochondrial membrane potential loss in human HT-29 cells assessed as decrease in red to green fluorescence intensity ratio at 0.125 to 1 uM incubated for 24 hrs by JC-1 dye based fluorescence spectrophotometric analysis", "assay_type": "functional, cell-based", "details": "dose microM 0.125-1, time 24.0 hrs"}, "[25]": {"test_system": "HT-29", "assay": "Induction of apoptosis in human HT-29 cells assessed as decrease in expression of Bcl-2 at 0.25 to 1 uM treated for 24 hrs by Western blot analysis", "assay_type": "functional, cell-based"}, "[26]": {"test_system": "HT-29", "assay": "Induction of apoptosis in human HT-29 cells assessed as increase in expression of Bax at 0.25 to 1 uM treated for 24 hrs by Western blot analysis", "assay_type": "functional, cell-based"}, "[27]": {"test_system": "HT-29", "assay": "Induction of apoptosis in human HT-29 cells assessed as increase in expression of cleaved caspase-3 at 0.25 to 1 uM treated for 24 hrs by western blot analysis", "assay_type": "functional, cell-based"}, "[28]": {"test_system": "HT-29", "assay": "Induction of apoptosis in human HT-29 cells assessed as increase in expression of cleaved PARP at 0.25 to 1 uM treated for 24 hrs by Western blot analysis", "assay_type": "functional, cell-based"}, "[29]": {"assay": "Selectivity index, ratio IC50 for human L02 cells to IC50 for human HT-29 cells", "assay_type": "toxicity", "details": "L02 cells versus HT-29 cells, read-out: Ratio IC50"}, "[30]": {"assay": "Selectivity index, ratio IC50 for human HK2 cells to IC50 for human HT-29 cells"}, "[31]": {"test_system": "HT-29", "assay": "Inhibition of TrxR in human HT-29 cells incubated for 24 hrs in presence of insulin, NADPH and Trx by DTNB reagent based assay", "assay_type": "cell-based"}, "[32]": {"molecular_target": "T1, Thioredoxin (Homo sapiens) (UniProt P10599)", "T1 sequence (whole entry)": "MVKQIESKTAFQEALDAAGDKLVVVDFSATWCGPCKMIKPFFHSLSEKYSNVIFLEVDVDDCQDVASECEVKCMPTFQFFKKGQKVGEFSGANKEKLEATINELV", "assay": "Inhibition of Trx in human HT-29 cells incubated for 24 hrs in presence of insulin, NADPH and DTT", "assay_type": "cell-based"}, "[33]": {"molecular_target": "T2, Glutathione reductase, mitochondrial (Homo sapiens) (UniProt P00390)", "T2 sequence (whole entry)": "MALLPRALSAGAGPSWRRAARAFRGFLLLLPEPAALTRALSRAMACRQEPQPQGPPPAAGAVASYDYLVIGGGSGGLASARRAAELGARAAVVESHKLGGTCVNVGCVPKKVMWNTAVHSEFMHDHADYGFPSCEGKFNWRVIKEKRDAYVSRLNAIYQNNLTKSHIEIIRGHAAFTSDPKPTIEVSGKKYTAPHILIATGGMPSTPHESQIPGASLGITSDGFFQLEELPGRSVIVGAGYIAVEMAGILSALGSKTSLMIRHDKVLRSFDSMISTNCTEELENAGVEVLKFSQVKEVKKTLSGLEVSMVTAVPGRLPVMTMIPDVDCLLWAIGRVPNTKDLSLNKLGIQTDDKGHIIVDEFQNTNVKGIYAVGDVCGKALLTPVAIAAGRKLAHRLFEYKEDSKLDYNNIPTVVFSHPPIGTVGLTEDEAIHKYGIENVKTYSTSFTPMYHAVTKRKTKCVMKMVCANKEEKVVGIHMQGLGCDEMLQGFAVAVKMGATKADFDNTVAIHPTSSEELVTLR", "assay": "Inhibition of GR in human HT-29 cells incubated for 24 hrs in presence of GSSG and NADPH", "assay_type": "cell-based"}, "[34]": {"test_system": "HT-29", "assay": "Inhibition of GPx in human HT-29 cells incubated for 24 hrs in presence of GSH, NADPH and GR measured at 10 secs interval for 4 mins", "assay_type": "cell-based", "details": "time 1444.0 min"}, "[35]": {"organism": "Rattus norvegicus", "assay": "Binding affinity to rat liver TrxR assessed as SGGDILQSGCUG-adduct formation by measuring retention time at 10 uM incubated for 1.5 hrs by LC-MS/MS analysis"}, "[36]": {"organism": "Rattus norvegicus", "assay": "Binding affinity to rat liver TrxR assessed as RSGGDILQSGCUG-adduct formation by measuring retention time at 10 uM incubated for 1.5 hrs by LC-MS/MS analysis"}, "[37]": {"assay": "Binding affinity to NAC assessed as sulfhydryl group-adduct formation at 5 mg by online NMR analysis"}, "[38]": {"assay": "Binding affinity to NAC assessed as sulfhydryl group-adduct formation at 5 mg incubated for 1.5 hrs by LC-MS/MS analysis"}, "[39]": {"assay": "Binding affinity to DTT assessed as sulfhydryl group-adduct formation at 5 mg incubated for 1.5 hrs by LC-MS/MS analysis"}, "[40]": {"test_system": "HT-29", "assay": "Binding affinity to sulfhydryl group in human HT-29 cells assessed as decrease in total content of sulfhydryl groups", "assay_type": "cell-based"}, "[41]": {"test_system": "HT-29", "assay": "Potency index, ratio of Withangulatin A IC50 to test compound IC50 for antiproliferative activity against human HT-29 cells assessed as reduction in cell viability", "assay_type": "functional"}}, "note": "Calls of active or inactive are those of the source. The calls are words filed in the database; no cut-off is given here."}
{"compound": "CC(=O)O[C@H]1C=C([C@H](C)[C@H]2CC(C)=C(C)C(=O)O2)[C@@]2(C)CC[C@H]3[C@@H](C[C@H]4O[C@]45[C@@H](OC(=O)/C=C/C(=O)N(C)C)C=CC(=O)[C@]35C)[C@]12O", "values": [{"measurement": "IC50", "setting": "[1]", "value": 80, "unit": "nM"}, {"measurement": "IC50", "setting": "[2]", "value": 130, "unit": "nM"}, {"measurement": "IC50", "setting": "[3]", "value": 110, "unit": "nM"}, {"measurement": "IC50", "setting": "[4]", "value": 330, "unit": "nM"}, {"measurement": "IC50", "setting": "[5]", "value": 5250, "unit": "nM"}, {"measurement": "IC50", "setting": "[6]", "value": 4530, "unit": "nM"}, {"measurement": "inhibition", "setting": "[7]", "value": "Active"}, {"measurement": "IC50", "setting": "[8]", "value": 850, "unit": "nM"}, {"measurement": "IC50", "setting": "[9]", "value": "> 2500", "unit": "nM"}, {"measurement": "IC50", "setting": "[10]", "value": 970, "unit": "nM"}, {"measurement": "IC50", "setting": "[11]", "value": 870, "unit": "nM"}, {"measurement": "IC50", "setting": "[12]", "value": 850, "unit": "nM"}, {"measurement": "Ki", "setting": "[13]", "value": 932, "unit": "nM"}, {"measurement": "Activity", "setting": "[14]", "value": "Active"}, {"measurement": "Activity", "setting": "[15]", "value": "Active"}, {"measurement": "inhibition", "setting": "[16]", "value": "Active"}, {"measurement": "inhibition", "setting": "[17]", "value": "Active"}, {"measurement": "inhibition", "setting": "[18]", "value": "Dose-dependent effect"}, {"measurement": "inhibition", "setting": "[19]", "value": "Dose-dependent effect"}, {"measurement": "Activity", "setting": "[20]", "value": "Dose-dependent effect"}, {"measurement": "Activity", "setting": "[21]", "value": "Active"}, {"measurement": "Activity", "setting": "[22]", "value": "Dose-dependent effect"}, {"measurement": "Activity", "setting": "[23]", "value": "Active"}, {"measurement": "Activity", "setting": "[24]", "value": "Active"}, {"measurement": "Activity", "setting": "[25]", "value": "Active"}, {"measurement": "Activity", "setting": "[26]", "value": "Active"}, {"measurement": "Activity", "setting": "[27]", "value": "Active"}, {"measurement": "Activity", "setting": "[28]", "value": "Active"}, {"measurement": "selectivity ratio", "setting": "[29]", "value": 66}, {"measurement": "Ratio IC50", "setting": "[30]", "value": 56}, {"measurement": "inhibition", "setting": "[31]", "value": "Active"}, {"measurement": "inhibition", "setting": "[32]", "value": "Active"}, {"measurement": "inhibition", "setting": "[33]", "value": "Active"}, {"measurement": "inhibition", "setting": "[34]", "value": "Active"}, {"measurement": "Retention time", "setting": "[35]", "value": 31.7, "unit": "min"}, {"measurement": "Retention time", "setting": "[36]", "value": 33.9, "unit": "min"}, {"measurement": "Activity", "setting": "[37]", "value": "Active"}, {"measurement": "Activity", "setting": "[38]", "value": "Active"}, {"measurement": "Activity", "setting": "[39]", "value": "Active"}, {"measurement": "Activity", "setting": "[40]", "value": "Active"}, {"measurement": "Ratio IC50", "setting": "[41]", "value": 30}]}
